# Measurements published in ChEMBL document CHEMBL1201862, “PubChem BioAssay data set” (2004).
#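 Exposure lasted 48 hours, with cells grown in 96-well plates and compounds tested at five concentrations. GI50 is the concentration that inhibits growth by half.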 Activity calls are given as the source filed them. Rule as the data show it: active = GI50 up to about 1.1 µM and inactive = higher.
# Legend:
# Experiment in all cases: DTP human tumour cell line panel, 48 h
# 786-0 = test system: 786-0
# A498 = test system: A498
# A549 = test system: A549
# ACHN = test system: ACHN
# BT-549 = test system: BT-549
# CAKI-1 = test system: CAKI-1
# CCRF-CEM = test system: CCRF-CEM
# COLO 205 = test system: COLO 205
# DU-145 = test system: DU-145
# EKVX = test system: EKVX
# HCC 2998 = test system: HCC 2998
# HCT-116 = test system: HCT-116
# HCT-15 = test system: HCT-15
# HL-60 = test system: HL-60
# HOP-62 = test system: HOP-62
# HT-29 = test system: HT-29
# Hs-578T = test system: Hs-578T
# IGROV-1 = test system: IGROV-1
# K562 = test system: K562
# KM12 = test system: KM12
# LOX IMVI = test system: LOX IMVI
# M14 = test system: M14
# MCF7 = test system: MCF7
# MDA-MB-231 = test system: MDA-MB-231
# MDA-MB-435 = test system: MDA-MB-435
# MDA-N = test system: MDA-N
# MOLT-4 = test system: MOLT-4
# Malme-3M = test system: Malme-3M
# NCI-H226 = test system: NCI-H226
# NCI-H23 = test system: NCI-H23
# NCI-H460 = test system: NCI-H460
# NCI-H522 = test system: NCI-H522
# NCI/ADR-RES = test system: NCI/ADR-RES
# OVCAR-3 = test system: OVCAR-3
# OVCAR-4 = test system: OVCAR-4
# OVCAR-5 = test system: OVCAR-5
# OVCAR-8 = test system: OVCAR-8
# PC-3 = test system: PC-3
# RPMI-8226 = test system: RPMI-8226
# RXF 393 = test system: RXF 393
# SF-268 = test system: SF-268
# SF-295 = test system: SF-295
# SF-539 = test system: SF-539
# SK-MEL-28 = test system: SK-MEL-28
# SK-MEL-2 = test system: SK-MEL-2
# SK-MEL-5 = test system: SK-MEL-5
# SK-OV-3 = test system: SK-OV-3
# SN12C = test system: SN12C
# SNB-19 = test system: SNB-19
# SNB-75 = test system: SNB-75
# SR = test system: SR
# SW-620 = test system: SW-620
# T47D = test system: T47D
# TK-10 = test system: TK-10
# U-251 = test system: U-251
# UACC-257 = test system: UACC-257
# UACC-62 = test system: UACC-62
# UO-31 = test system: UO-31
# HOP-92 = test system: HOP-92
compound,measurement,setting,value
C[C@]12CC[C@H]3[C@@H](CCC4=CC(=O)CC[C@@]43C)[C@]1(O)CC[C@]2(O)C(=O)CO,GI50,786-0,> 100 µM (inactive)
same,GI50,A498,> 100 µM (inactive)
same,GI50,A549,> 100 µM (inactive)
same,GI50,ACHN,> 100 µM (inactive)
same,GI50,BT-549,> 100 µM (inactive)
same,GI50,CAKI-1,> 100 µM (inactive)
same,GI50,CCRF-CEM,> 100 µM (inactive)
same,GI50,COLO 205,> 100 µM (inactive)
same,GI50,DU-145,> 100 µM (inactive)
same,GI50,EKVX,> 100 µM (inactive)
same,GI50,HCC 2998,> 100 µM (inactive)
same,GI50,HCT-116,> 100 µM (inactive)
same,GI50,HCT-15,> 100 µM
same,GI50,HL-60,> 100 µM (inactive)
same,GI50,HOP-62,> 100 µM (inactive)
same,GI50,HT-29,> 100 µM (inactive)
same,GI50,Hs-578T,> 100 µM (inactive)
same,GI50,IGROV-1,> 100 µM (inactive)
same,GI50,K562,> 100 µM (inactive)
same,GI50,KM12,> 100 µM (inactive)
same,GI50,LOX IMVI,> 100 µM (inactive)
same,GI50,M14,> 100 µM (inactive)
same,GI50,MCF7,> 100 µM (inactive)
same,GI50,MDA-MB-231,> 100 µM (inactive)
same,GI50,MDA-MB-435,> 100 µM (inactive)
same,GI50,MDA-N,> 100 µM (inactive)
same,GI50,MOLT-4,> 100 µM (inactive)
same,GI50,Malme-3M,> 100 µM (inactive)
same,GI50,NCI-H226,> 100 µM (inactive)
same,GI50,NCI-H23,> 100 µM (inactive)
same,GI50,NCI-H460,> 100 µM (inactive)
same,GI50,NCI-H522,> 100 µM (inactive)
same,GI50,NCI/ADR-RES,> 100 µM (inactive)
same,GI50,OVCAR-3,> 100 µM (inactive)
same,GI50,OVCAR-4,> 100 µM (inactive)
same,GI50,OVCAR-5,> 100 µM (inactive)
same,GI50,OVCAR-8,> 100 µM (inactive)
same,GI50,PC-3,> 100 µM (inactive)
same,GI50,RPMI-8226,> 100 µM (inactive)
same,GI50,RXF 393,> 100 µM (inactive)
same,GI50,SF-268,> 100 µM (inactive)
same,GI50,SF-295,> 100 µM (inactive)
same,GI50,SF-539,> 100 µM (inactive)
same,GI50,SK-MEL-28,> 100 µM (inactive)
same,GI50,SK-MEL-2,> 100 µM (inactive)
same,GI50,SK-MEL-5,> 100 µM (inactive)
same,GI50,SK-OV-3,> 100 µM (inactive)
same,GI50,SN12C,> 100 µM (inactive)
same,GI50,SNB-19,> 100 µM (inactive)
same,GI50,SNB-75,> 100 µM (inactive)
same,GI50,SR,> 100 µM (inactive)
same,GI50,SW-620,> 100 µM (inactive)
same,GI50,T47D,> 100 µM (inactive)
same,GI50,TK-10,> 100 µM (inactive)
same,GI50,U-251,> 100 µM (inactive)
same,GI50,UACC-257,> 100 µM (inactive)
same,GI50,UACC-62,> 100 µM (inactive)
same,GI50,UO-31,> 100 µM (inactive)
Cc1c2cccc-2c(N(C)C)cc2c1[nH]c1ccccc12,GI50,786-0,2.97 µM (inactive)
same,GI50,A498,21 µM (inactive)
same,GI50,A549,3.85 µM (inactive)
same,GI50,ACHN,3.19 µM (inactive)
same,GI50,BT-549,2.6 µM (inactive)
same,GI50,CAKI-1,17.5 µM (inactive)
same,GI50,CCRF-CEM,3.83 µM (inactive)
same,GI50,COLO 205,1.65 µM (inactive)
same,GI50,DU-145,14.6 µM (inactive)
same,GI50,EKVX,1.96 µM (inactive)
same,GI50,HCT-116,3.33 µM (inactive)
same,GI50,HCT-15,3.12 µM
same,GI50,HL-60,2.35 µM (inactive)
same,GI50,HOP-62,2.71 µM (inactive)
same,GI50,HOP-92,0.561 µM (active)
same,GI50,HT-29,4.81 µM (inactive)
same,GI50,Hs-578T,3.57 µM (inactive)
same,GI50,IGROV-1,1.89 µM (inactive)
same,GI50,KM12,2.74 µM (inactive)
same,GI50,LOX IMVI,3.94 µM (inactive)
same,GI50,M14,5.32 µM (inactive)
same,GI50,MCF7,5.31 µM (inactive)
same,GI50,MDA-MB-231,10.1 µM (inactive)
same,GI50,MDA-MB-435,8.36 µM (inactive)
same,GI50,MDA-N,6.56 µM (inactive)
same,GI50,MOLT-4,4.35 µM (inactive)
same,GI50,Malme-3M,3.3 µM (inactive)
same,GI50,NCI-H226,5.81 µM (inactive)
same,GI50,NCI-H23,8.93 µM (inactive)
same,GI50,NCI-H460,9.16 µM (inactive)
same,GI50,NCI/ADR-RES,3.22 µM (inactive)
same,GI50,OVCAR-3,4.32 µM (inactive)
same,GI50,OVCAR-5,3.23 µM (inactive)
same,GI50,OVCAR-8,3.21 µM (inactive)
same,GI50,PC-3,1.42 µM (inactive)
same,GI50,RPMI-8226,2.07 µM (inactive)
same,GI50,SF-268,5.13 µM (inactive)
same,GI50,SF-295,10.4 µM (inactive)
same,GI50,SF-539,2.11 µM (inactive)
same,GI50,SK-MEL-28,2.02 µM (inactive)
same,GI50,SK-MEL-5,5.64 µM (inactive)
same,GI50,SK-OV-3,2.67 µM (inactive)
same,GI50,SN12C,6.67 µM (inactive)
same,GI50,SNB-19,9.27 µM (inactive)
same,GI50,SR,1.58 µM (inactive)
same,GI50,SW-620,4.17 µM (inactive)
same,GI50,T47D,1.86 µM (inactive)
same,GI50,TK-10,4.63 µM (inactive)
same,GI50,U-251,1.93 µM (inactive)
same,GI50,UACC-257,13 µM (inactive)
same,GI50,UO-31,2.53 µM (inactive)
Nc1ccc(I)cn1,GI50,786-0,> 100 µM (inactive)
same,GI50,A498,> 100 µM (inactive)
same,GI50,A549,> 100 µM (inactive)
same,GI50,ACHN,> 100 µM (inactive)
same,GI50,BT-549,> 100 µM (inactive)
same,GI50,CAKI-1,> 100 µM (inactive)
same,GI50,CCRF-CEM,> 100 µM (inactive)
same,GI50,COLO 205,> 100 µM (inactive)
same,GI50,DU-145,> 100 µM (inactive)
same,GI50,EKVX,> 100 µM (inactive)
same,GI50,HCC 2998,> 100 µM (inactive)
same,GI50,HCT-116,> 100 µM (inactive)
same,GI50,HCT-15,> 100 µM
same,GI50,HL-60,> 100 µM (inactive)
same,GI50,HOP-62,> 100 µM (inactive)
same,GI50,HT-29,> 100 µM (inactive)
same,GI50,Hs-578T,> 100 µM (inactive)
same,GI50,IGROV-1,> 100 µM (inactive)
same,GI50,K562,> 100 µM (inactive)
same,GI50,KM12,> 100 µM (inactive)
same,GI50,LOX IMVI,> 100 µM (inactive)
same,GI50,M14,> 100 µM (inactive)
same,GI50,MCF7,> 100 µM (inactive)
same,GI50,MDA-MB-231,> 100 µM (inactive)
same,GI50,MDA-MB-435,> 100 µM (inactive)
same,GI50,MDA-N,> 100 µM (inactive)
same,GI50,MOLT-4,> 100 µM (inactive)
same,GI50,Malme-3M,> 100 µM (inactive)
same,GI50,NCI-H226,> 100 µM (inactive)
same,GI50,NCI-H23,> 100 µM (inactive)
same,GI50,NCI-H460,> 100 µM (inactive)
same,GI50,NCI-H522,> 100 µM (inactive)
same,GI50,NCI/ADR-RES,> 100 µM (inactive)
same,GI50,OVCAR-3,> 100 µM (inactive)
same,GI50,OVCAR-4,> 100 µM (inactive)
same,GI50,OVCAR-5,> 100 µM (inactive)
same,GI50,OVCAR-8,> 100 µM (inactive)
same,GI50,PC-3,> 100 µM (inactive)
same,GI50,RPMI-8226,> 100 µM (inactive)
same,GI50,RXF 393,> 100 µM (inactive)
same,GI50,SF-268,> 100 µM (inactive)
same,GI50,SF-295,> 100 µM (inactive)
same,GI50,SK-MEL-28,> 100 µM (inactive)
same,GI50,SK-MEL-2,> 100 µM (inactive)
same,GI50,SK-MEL-5,> 100 µM (inactive)
same,GI50,SK-OV-3,> 100 µM (inactive)
same,GI50,SN12C,> 100 µM (inactive)
same,GI50,SNB-19,> 100 µM (inactive)
same,GI50,SNB-75,> 100 µM (inactive)
same,GI50,SR,> 100 µM (inactive)
same,GI50,SW-620,> 100 µM (inactive)
same,GI50,T47D,> 100 µM (inactive)
same,GI50,U-251,> 100 µM (inactive)
same,GI50,UACC-62,> 100 µM (inactive)
same,GI50,UO-31,> 100 µM (inactive)
